In patent publication US20260250257A1, “ANTIBACTERIAL AND SYNERGISTIC ACTIVE COMPOUND AND USE THEREOF” (EAST CHINA UNIVERSITY OF SCIENCE AND TECHNOLOGY, priority 2023, published 2026):
Values after ≈ are worked out from the molar mass of the structure shown.

How the values were obtained:
Type in all cases: cell-based
[1] = test system: ATCC13883 strain (Klebsiella pneumoniae); experiment: Broth microdilution, antibacterial activity of the compound used alone
Excerpt: (§1) The broth microdilution method was used to test the antibacterial effects of the compounds of the present invention against various Gram-negative bacterial strains when used alone.

[2] = test system: ATCC25922 strain (Escherichia coli); experiment: as above
Excerpt: as §1

[3] = test system: ATCC19606 strain (Acinetobacter baumannii); experiment: as above
Excerpt: as §1

[4] = test system: ATCC9027 strain (Pseudomonas aeruginosa); experiment: as above
Excerpt: as §1

[5] = test system: ATCC13883 strain (Klebsiella pneumoniae); experiment: Checkerboard antibacterial synergistic activity test with polymyxin E (FIC); set-up: key: FIC≤0.5 synergy; 0.5–1 additive; 1–2 indifferent; ≥2 antagonism; settings: combined with polymyxin E
How it was run: (§2)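 Interaction is reported as the fractional inhibitory concentration, read after 16 h of growth at 37° C. in Mueller-Hinton broth. Each well paired one level of polymyxin E (prepared at 16 to 0.015 μg/ml) with one of the test agent (prepared at 256 to 4 μg/ml) before bacteria were added.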

[6] = test system: ATCC25922 strain (Escherichia coli); experiment: as above; set-up: key: FIC≤0.5 synergy; 0.5–1 additive; 1–2 indifferent; ≥2 antagonism; settings: combined with polymyxin E
How it was run: as §2

[7] = test system: ATCC19606 strain (Acinetobacter baumannii); experiment: as above; set-up: key: FIC≤0.5 synergy; 0.5–1 additive; 1–2 indifferent; ≥2 antagonism; settings: combined with polymyxin E
How it was run: as §2

[8] = test system: ATCC9027 strain (Pseudomonas aeruginosa); experiment: as above; set-up: key: FIC≤0.5 synergy; 0.5–1 additive; 1–2 indifferent; ≥2 antagonism; settings: combined with polymyxin E
How it was run: as §2

SMILES	Antibacterial activity of the compound of Formula I, ATCC13883 [1]	Antibacterial activity of the compound of Formula I, ATCC25922 [2]	Antibacterial activity of the compound of Formula I, ATCC19606 [3]	Antibacterial activity of the compound of Formula I, ATCC9027 [4]	Synergistic activity (FIC value) ATCC13883 [5]	Synergistic activity (FIC value) ATCC25922 [6]	Synergistic activity (FIC value) ATCC19606 [7]	Synergistic activity (FIC value) ATCC9027 [8]	MIC ([1]; read-out: Antibacterial activity of the compound of Formula I, ATCC13883)	MIC ([2]; read-out: Antibacterial activity of the compound of Formula I, ATCC25922)	MIC ([3]; read-out: Antibacterial activity of the compound of Formula I, ATCC19606)	MIC ([4]; read-out: Antibacterial activity of the compound of Formula I, ATCC9027)
CSc1cc2cc(C)ccn2c1-c1csc(N=C(N)N)n1 [Compound I-125]	256 µg/mL	256 µg/mL	256 µg/mL	256 µg/mL	0.16	0.18	0.03	0.28				
CSc1cc2ccc(C)cn2c1-c1nc(N=C(N)N)sc1C [Compound I-126]	256 µg/mL	256 µg/mL	256 µg/mL	256 µg/mL	0.13	0.2	0.04	0.28				
CSc1cc2cccc(C)n2c1-c1nc(N=C(N)N)sc1Cl [Compound I-127]	128 µg/mL	128 µg/mL	256 µg/mL	64 µg/mL	0.09	0.14	0.31	0.06				
CSc1cc2cc(C)cc(C)n2c1-c1nc(N=C(N)N)oc1C [Compound I-128]	256 µg/mL	256 µg/mL	256 µg/mL	256 µg/mL	0.16	0.18	0.03	0.28				
CSc1cc2c(Cl)cccn2c1-c1c[nH]c(N=C(N)N)n1 [Compound I-129]	256 µg/mL	256 µg/mL	256 µg/mL	256 µg/mL	0.09	0.14	0.31	0.06				
CSc1cc2cc(Cl)cc(Cl)n2c1-c1nc(N=C(N)N)sc1Cl [Compound I-130]	256 µg/mL	256 µg/mL	256 µg/mL	256 µg/mL	0.16	0.18	0.03	0.28				
NC(N)=Nc1nc(-c2cccc(NC(=O)Nc3ccccc3)c2)cs1 [Compound I-131]					0.09	0.14	0.31	0.06	256 mg/L (≈ 726 µM)	256 mg/L (≈ 726 µM)	256 mg/L (≈ 726 µM)	256 mg/L (≈ 726 µM)
Cc1ccc(NC(=O)Nc2cccc(-c3nc(N=C(N)N)sc3C)c2)c(C)c1 [Compound I-132]	256 µg/mL	256 µg/mL	256 µg/mL	256 µg/mL	0.16	0.18	0.03	0.28				
NC(N)=Nc1nc(-c2cccc(NC(=O)Nc3ccc(Cl)cc3Cl)c2)c(Cl)s1 [Compound I-133]	256 µg/mL	256 µg/mL	256 µg/mL	256 µg/mL	0.19	0.04	0.38	0.04				
Clc1ccc(Oc2ccccc2)c(-c2coc(N=C3NCCCN3)n2)c1 [Compound I-134]	256 µg/mL	256 µg/mL	256 µg/mL	256 µg/mL	0.53	1.25	1.25	0.52				
Nc1cc(Oc2ccccc2)cc(-c2c[nH]c(N=C3NCCCN3)n2)c1 [Compound I-135]	256 µg/mL	256 µg/mL	256 µg/mL	256 µg/mL	0.75	0.51	0.26	0.53				
Fc1cc(-c2csc(N=C3NCCCN3)n2)c(F)cc1Oc1ccccc1 [Compound I-136]	256 µg/mL	256 µg/mL	256 µg/mL	256 µg/mL	1.25	0.5	1.25	1.25				
Oc1ccc(-c2ccccn2)c(-c2c[se]c(N=C3NCCCN3)n2)c1 [Compound I-137]	128 µg/mL	128 µg/mL	256 µg/mL	128 µg/mL	1.25	0.5	1.25	1.25				
CNC(=O)c1ccc(-c2ccncn2)c(-c2csc(N=C3NCCCN3)n2)c1 [Compound I-138]	256 µg/mL	256 µg/mL	256 µg/mL	256 µg/mL	1.25	1.25	1.25	1.25				
Cc1oc(N=C2NCCCN2)nc1-c1cc(NS(C)(=O)=O)ccc1-c1ccco1 [Compound I-139]	256 µg/mL	256 µg/mL	256 µg/mL	256 µg/mL	1.25	0.5	0.75	1.25				
